These results are taken from ChEMBL document CHEMBL1128021, “Potent and selective inhibitors of gelatinase-a 1. hydroxamic acid derivatives” (Bioorg Med Chem Lett, 1994).

Some results are limits rather than exact numbers.

Experiment [1] has as its target 72 kDa type IV collagenase (Homo sapiens, UniProt P08253). Briefly: Inhibition of the gelatinase-A enzyme.
In experiment [2] the target is T1, Interstitial collagenase (Homo sapiens, UniProt P03956).
T1 sequence (P03956 whole entry): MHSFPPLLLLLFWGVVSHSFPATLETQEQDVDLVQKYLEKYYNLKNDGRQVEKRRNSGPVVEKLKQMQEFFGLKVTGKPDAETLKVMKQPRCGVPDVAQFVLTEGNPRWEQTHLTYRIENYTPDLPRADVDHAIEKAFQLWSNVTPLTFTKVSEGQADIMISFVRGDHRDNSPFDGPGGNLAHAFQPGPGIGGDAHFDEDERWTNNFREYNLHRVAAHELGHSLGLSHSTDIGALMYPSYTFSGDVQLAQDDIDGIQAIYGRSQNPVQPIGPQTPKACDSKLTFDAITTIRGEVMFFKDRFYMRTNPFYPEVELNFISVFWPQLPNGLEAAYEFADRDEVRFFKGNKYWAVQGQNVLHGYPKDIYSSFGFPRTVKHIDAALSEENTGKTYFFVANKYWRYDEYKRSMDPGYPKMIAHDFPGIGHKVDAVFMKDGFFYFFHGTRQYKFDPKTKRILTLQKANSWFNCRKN
As to the kind of experiment: Inhibition of the collagenase enzyme.

In experiment [3] the target is Stromelysin-1 (Homo sapiens, UniProt P08254). Briefly: Inhibition of the stromelysin enzyme.
Sequence of Stromelysin-1 (P08254 whole entry): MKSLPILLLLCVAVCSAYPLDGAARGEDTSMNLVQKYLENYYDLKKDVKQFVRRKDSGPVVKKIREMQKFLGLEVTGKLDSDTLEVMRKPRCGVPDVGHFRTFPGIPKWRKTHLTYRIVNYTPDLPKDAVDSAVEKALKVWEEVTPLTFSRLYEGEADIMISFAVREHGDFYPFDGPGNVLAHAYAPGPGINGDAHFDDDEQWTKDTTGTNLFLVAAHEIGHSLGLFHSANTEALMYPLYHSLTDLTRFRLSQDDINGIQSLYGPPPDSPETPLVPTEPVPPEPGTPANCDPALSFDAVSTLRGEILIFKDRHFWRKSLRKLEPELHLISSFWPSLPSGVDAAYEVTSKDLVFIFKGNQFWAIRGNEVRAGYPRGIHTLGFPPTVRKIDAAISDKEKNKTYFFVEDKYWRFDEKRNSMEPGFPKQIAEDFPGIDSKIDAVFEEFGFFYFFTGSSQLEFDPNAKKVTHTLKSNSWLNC

Sequence of 72 kDa type IV collagenase (P08253 whole entry): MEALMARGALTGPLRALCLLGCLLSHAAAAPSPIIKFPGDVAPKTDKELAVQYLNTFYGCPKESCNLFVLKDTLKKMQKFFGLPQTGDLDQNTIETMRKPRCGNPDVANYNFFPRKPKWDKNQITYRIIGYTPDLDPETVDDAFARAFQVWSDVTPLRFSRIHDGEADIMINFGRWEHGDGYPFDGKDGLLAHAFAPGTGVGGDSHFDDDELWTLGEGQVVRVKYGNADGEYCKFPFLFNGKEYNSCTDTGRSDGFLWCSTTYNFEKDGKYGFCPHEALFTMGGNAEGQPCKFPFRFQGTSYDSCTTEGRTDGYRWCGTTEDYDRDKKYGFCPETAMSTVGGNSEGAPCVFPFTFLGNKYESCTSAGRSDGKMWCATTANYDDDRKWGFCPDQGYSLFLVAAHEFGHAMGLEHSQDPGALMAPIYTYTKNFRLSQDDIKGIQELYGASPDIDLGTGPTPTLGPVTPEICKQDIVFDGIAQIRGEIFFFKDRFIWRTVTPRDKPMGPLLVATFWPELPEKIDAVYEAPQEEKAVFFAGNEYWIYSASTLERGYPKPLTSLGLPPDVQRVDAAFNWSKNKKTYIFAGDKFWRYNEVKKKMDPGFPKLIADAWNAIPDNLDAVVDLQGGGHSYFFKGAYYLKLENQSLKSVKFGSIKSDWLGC

By Ki is commonly meant a measure of affinity in units of concentration, obtained from inhibition or displacement. Lower therefore signals tighter binding. `O=C(C[C@@H](CCCC1CCCCC1)C(=O)N[C@@H](CC1CCCCC1)C(=O)NCCc1ccccc1)NO`: the Ki in experiment [1] was 6.9 nM.
As to `Cc1ccc(CCC[C@H](CC(=O)NO)C(=O)N[C@@H](CC2CCCCC2)C(=O)NCCc2ccc(S(N)(=O)=O)cc2)cc1`, the Ki in experiment [2] was 329 nM; in experiment [3], 2.98 nM; in experiment [1] it was 0.01 nM.
As for `O=C(C[C@@H](CCCc1ccc(Cl)cc1)C(=O)N[C@@H](CC1CCCCC1)C(=O)NCCC(=O)N1CCOCC1)NO`, the values for the Ki in experiment [2], in experiment [3] and in experiment [1] were 319 nM, 1.38 nM and 0.02 nM, respectively.
The like results for `COC(=O)CCNC(=O)[C@H](CC1CCCCC1)NC(=O)[C@H](CCCc1ccc(Cl)cc1)CC(=O)NO` were, in that order, 135 nM, 0.96 nM and 0.01 nM.
With `O=C(C[C@@H](Cc1ccccc1)C(=O)N[C@@H](CC1CCCCC1)C(=O)NCCc1ccccc1)NO`, the Ki was over 10000 nM in experiment [2], over 10000 nM in experiment [3] and 1900 nM in experiment [1].
Turning to `O=C(C[C@@H](CCCc1ccccc1)C(=O)N[C@@H](CC1CCCCC1)C(=O)NCCc1ccc(S(=O)(=O)O)cc1)NO`, the Ki in experiment [2] was determined as 942 nM; in experiment [3], 8.15 nM; in experiment [1], 0.59 nM.
As for `O=C(C[C@@H](CCCc1ccc(Cl)cc1)C(=O)N[C@@H](CC1CCCCC1)C(=O)NCCNS(=O)(=O)N1CCOCC1)NO`, affinity in experiment [1] was put at a Ki of 0.01 nM.
`O=C(O)CCNC(=O)[C@H](CC1CCCCC1)NC(=O)[C@H](CCCc1ccc(Cl)cc1)CC(=O)NO`: the figures for the Ki in experiment [2], in experiment [3] and in experiment [1] were 193 nM, 0.8 nM and 0.01 nM, respectively.
With `COc1ccc(CCC[C@H](CC(=O)NO)C(=O)N[C@@H](CC2CCCCC2)C(=O)NCCc2ccccc2)cc1`, the Ki in experiment [2] amounted to 1530 nM; in experiment [3], 4.16 nM; in experiment [1] it was 0.06 nM.
`Cc1ccc(CCC[C@H](CC(=O)NO)C(=O)N[C@@H](CC2CCCCC2)C(=O)NCCc2ccccc2)cc1`: the figures for the Ki in experiment [2], in experiment [3] and in experiment [1] were 921 nM, 8.24 nM and 0.08 nM, respectively.
With `O=C(C[C@@H](CCCc1ccc(F)cc1)C(=O)N[C@@H](CC1CCCCC1)C(=O)NCCc1ccccc1)NO`, the figures for the Ki in experiment [2], in experiment [3] and in experiment [1] were 296 nM, 13.5 nM and 0.06 nM, respectively.
Take `CC(C)C[C@H](CC(=O)NO)C(=O)N[C@@H](CC1CCCCC1)C(=O)NCCc1ccccc1`: the Ki in experiment [2] was found to be 7.8 nM; in experiment [3], 25.3 nM; in experiment [1], 0.33 nM.
Regarding `O=C(C[C@@H](CCc1ccccc1)C(=O)N[C@@H](CC1CCCCC1)C(=O)NCCc1ccccc1)NO`, the Ki is 618 nM in experiment [2], 77 nM in experiment [3] and 2.24 nM in experiment [1].
On to `O=C(C[C@@H](CCCc1ccc(Cl)cc1)C(=O)N[C@@H](CC1CCCCC1)C(=O)NCCc1ccccc1)NO`, for which the Ki in experiment [3] came out at 7.31 nM; in experiment [1], 0.03 nM.
In the case of `O=C(C[C@@H](CCCc1ccccc1)C(=O)N[C@@H](CC1CCCCC1)C(=O)NCCc1ccccc1)NO`, the Ki in experiment [2] worked out at 203 nM; in experiment [3] it was 8.3 nM; in experiment [1], 0.062 nM.
As to `CN(C)CCCCNC(=O)[C@H](CC1CCCCC1)NC(=O)[C@H](CCCc1ccc(Cl)cc1)CC(=O)NO`, the Ki is 1050 nM in experiment [2], 22.2 nM in experiment [3] and 0.05 nM in experiment [1].
`CCc1ccc(CCC[C@H](CC(=O)NO)C(=O)N[C@@H](CC2CCCCC2)C(=O)NCCc2ccccc2)cc1`: the inhibition constant (Ki) worked out at 5120 nM in experiment [2], 5.44 nM in experiment [3] and 0.1 nM in experiment [1].
As to `Cc1ccc(CCC[C@H](CC(=O)NO)C(=O)N[C@@H](CC2CCCCC2)C(=O)NCCN2CCOCC2)cc1`, the Ki is 455 nM in experiment [2], 6.26 nM in experiment [3] and 0.01 nM in experiment [1].
In the case of `O=C(C[C@@H](CCCc1ccc(Cl)cc1)C(=O)N[C@@H](CC1CCCCC1)C(=O)NCCCCN1CCOCC1)NO`, the results for the inhibition constant (Ki) in experiment [2], in experiment [3] and in experiment [1] were 313 nM, 2.39 nM and 0.03 nM, respectively.
With `Cc1ccc(CCC[C@H](CC(=O)NO)C(=O)N[C@@H](CC2CCCCC2)C(=O)NCCNS(=O)(=O)N2CCOCC2)cc1`, the Ki in experiment [1] turned out to be 0.01 nM.
Consider `CC(C)C[C@H](CC(=O)NO)C(=O)N[C@@H](CC(C)C)C(=O)N[C@@H](Cc1ccccc1)C(N)=O`, for which the results for the Ki in experiment [2] and in experiment [3] were 303 nM and 127 nM, respectively.
For `O=C(C[C@@H](CCCc1ccc(C(F)(F)F)cc1)C(=O)N[C@@H](CC1CCCCC1)C(=O)NCCc1ccccc1)NO`, the Ki in experiment [2] stood at 5000 nM; in experiment [3], 90.3 nM; in experiment [1] it was 0.3 nM.
For `O=C(C[C@@H](CCCCc1ccccc1)C(=O)N[C@@H](CC1CCCCC1)C(=O)NCCc1ccccc1)NO`, the Ki came out at 2500 nM in experiment [2], 177 nM in experiment [3] and 0.254 nM in experiment [1].
Consider `NS(=O)(=O)c1ccc(CCNC(=O)[C@H](CC2CCCCC2)NC(=O)[C@H](CCCc2ccc(Cl)cc2)CC(=O)NO)cc1`, for which the Ki came to 382 nM in experiment [2], 6.35 nM in experiment [3] and 0.03 nM in experiment [1].
In the same order, the values of `Cc1ccc(CCC[C@H](CC(=O)NO)C(=O)N[C@@H](CC2CCCCC2)C(=O)NCCCCN(C)C)cc1` are 313 nM, 5.87 nM and 0.02 nM.
Consider `Cc1ccc(CCC[C@H](CC(=O)NO)C(=O)N[C@@H](CC2CCCCC2)C(=O)NCCCCN2CCOCC2)cc1`, for which the values for the Ki in experiment [2], in experiment [3] and in experiment [1] were 642 nM, 2.61 nM and 0.02 nM, respectively.
